Measured values from patent US8394442B2, “Process for the preparation of a flavoring concentrate, and a flavoring concentrate” (SYMRISE AG, priority 2007, dated 2013).

Test: log Pow* calculated by Formula 2 from log Pow and the polarity parameter P′(x) of the ethanol/water mixture
Details: not given

SMILES	log Pow* (P′ 2%)	log Pow* (P′ 4%)	log Pow* (P′ 6%)	log Pow* (P′ 8%)	log Pow* (P′ 10%)	log Pow* (P′ 30%)	log Pow* (P′ 40%)	log Pow* (P′ 50%)	log Pow* (P′ 60%)	log Pow* (P′ 70%)
CC(C)CCO [3-mebutanol, 3-methylbutanol]	1.12	0.98	0.84	0.71	0.58	−0.41	−0.78	−1.08	−1.34	−1.57
CC(C)=CCCC(C)=CC=O [Citral]	3.11	3.05	2.99	2.94	2.89	2.49	2.34	2.22	2.11	2.02
CCCSSCCC [Dipropyldisulfide]	3.85	3.80	3.76	3.71	3.67	3.34	3.22	3.12	3.04	2.97
CCCC(=O)OCC [Ethylbutyrate]	1.66	1.55	1.45	1.35	1.26	0.55	0.28	0.06	−0.13	−0.29

Same assay, conditions: not given

SMILES	log Pow* (P′ 80%)	log Pow* (P′ 90%)	log Pow* (P′ 100%)
CC(C)CCO [3-mebutanol, 3-methylbutanol]	−1.76	−1.93	−2.08
CC(C)=CCCC(C)=CC=O [Citral]	1.94	1.87	1.81
CCCSSCCC [Dipropyldisulfide]	2.90	2.85	2.80
CCCC(=O)OCC [Ethylbutyrate]	−0.43	−0.55	−0.66

Same assay, conditions: solvent ethanol, proportion 2%

SMILES	log Pow* (P′ 2%)
CCC(C)CO (stereo not drawn) [2-mebutanol, 2-methylbutanol]	1.14
CCC/C=C/C=O [2E-hexenal]	1.49
CCC/C=C/CO [2E-hexenol]	1.64
CCCCOC(C)=O [Butylacetate]	1.66
CC(=O)C(C)=O [Diacetyl]	−1.48
CCOC(=O)C(C)CC (stereo not drawn) [Ethylmethylbutyrate-2]	2.30
SCc1ccco1 [Furfurylthiol-2]	1.80
c1ccc2[nH]ccc2c1 [Indole]	2.05
CC/C=C\CC1CCCC(=O)O1 (stereo not drawn) [Jasmine lactone]	2.39
Oc1ccccc1 [Phenol]	1.35

Same assay, conditions: solvent ethanol, proportion 4%

SMILES	log Pow* (P′ 4%)
CCC(C)CO (stereo not drawn) [2-mebutanol, 2-methylbutanol]	0.99
CCC/C=C/C=O [2E-hexenal]	1.37
CCC/C=C/CO [2E-hexenol]	1.53
CCCCOC(C)=O [Butylacetate]	1.55
CC(=O)C(C)=O [Diacetyl]	−1.62
CCOC(=O)C(C)CC (stereo not drawn) [Ethylmethylbutyrate-2]	2.22
SCc1ccco1 [Furfurylthiol-2]	1.70
c1ccc2[nH]ccc2c1 [Indole]	1.96
CC/C=C\CC1CCCC(=O)O1 (stereo not drawn) [Jasmine lactone]	2.31
Oc1ccccc1 [Phenol]	1.22

Same assay, conditions: solvent ethanol, proportion 6%

SMILES	log Pow* (P′ 6%)
CCC(C)CO (stereo not drawn) [2-mebutanol, 2-methylbutanol]	0.85
CCC/C=C/C=O [2E-hexenal]	1.26
CCC/C=C/CO [2E-hexenol]	1.43
CCCCOC(C)=O [Butylacetate]	1.45
CC(=O)C(C)=O [Diacetyl]	−1.76
CCOC(=O)C(C)CC (stereo not drawn) [Ethylmethylbutyrate-2]	2.14
SCc1ccco1 [Furfurylthiol-2]	1.60
c1ccc2[nH]ccc2c1 [Indole]	1.88
CC/C=C\CC1CCCC(=O)O1 (stereo not drawn) [Jasmine lactone]	2.24
Oc1ccccc1 [Phenol]	1.10

Same assay, conditions: solvent ethanol, proportion 8%

SMILES	log Pow* (P′ 8%)
CCC(C)CO (stereo not drawn) [2-mebutanol, 2-methylbutanol]	0.72
CCC/C=C/C=O [2E-hexenal]	1.15
CCC/C=C/CO [2E-hexenol]	1.33
CCCCOC(C)=O [Butylacetate]	1.35
CC(=O)C(C)=O [Diacetyl]	−1.88
CCOC(=O)C(C)CC (stereo not drawn) [Ethylmethylbutyrate-2]	2.07
SCc1ccco1 [Furfurylthiol-2]	1.51
c1ccc2[nH]ccc2c1 [Indole]	1.80
CC/C=C\CC1CCCC(=O)O1 (stereo not drawn) [Jasmine lactone]	2.17
Oc1ccccc1 [Phenol]	0.98

Same assay, conditions: solvent ethanol, proportion 10%

SMILES	log Pow* (P′ 10%)
CCC(C)CO (stereo not drawn) [2-mebutanol, 2-methylbutanol]	0.59
CCC/C=C/C=O [2E-hexenal]	1.05
CCC/C=C/CO [2E-hexenol]	1.24
CCCCOC(C)=O [Butylacetate]	1.26
CC(=O)C(C)=O [Diacetyl]	−2.00
CCOC(=O)C(C)CC (stereo not drawn) [Ethylmethylbutyrate-2]	2.00
SCc1ccco1 [Furfurylthiol-2]	1.43
c1ccc2[nH]ccc2c1 [Indole]	1.72
CC/C=C\CC1CCCC(=O)O1 (stereo not drawn) [Jasmine lactone]	2.11
Oc1ccccc1 [Phenol]	0.87

Same assay, conditions: solvent ethanol, proportion 30%

SMILES	log Pow* (P′ 30%)
CCC(C)CO (stereo not drawn) [2-mebutanol, 2-methylbutanol]	−0.39
CCC/C=C/C=O [2E-hexenal]	0.26
CCC/C=C/CO [2E-hexenol]	0.51
CCCCOC(C)=O [Butylacetate]	0.55
CC(=O)C(C)=O [Diacetyl]	−2.96
CCOC(=O)C(C)CC (stereo not drawn) [Ethylmethylbutyrate-2]	1.47
SCc1ccco1 [Furfurylthiol-2]	0.76
c1ccc2[nH]ccc2c1 [Indole]	1.13
CC/C=C\CC1CCCC(=O)O1 (stereo not drawn) [Jasmine lactone]	1.59
Oc1ccccc1 [Phenol]	0.02

Same assay, conditions: solvent ethanol, proportion 40%

SMILES	log Pow* (P′ 40%)
CCC(C)CO (stereo not drawn) [2-mebutanol, 2-methylbutanol]	−0.75
CCC/C=C/C=O [2E-hexenal]	−0.03
CCC/C=C/CO [2E-hexenol]	0.24
CCCCOC(C)=O [Butylacetate]	0.28
CC(=O)C(C)=O [Diacetyl]	−3.31
CCOC(=O)C(C)CC (stereo not drawn) [Ethylmethylbutyrate-2]	1.27
SCc1ccco1 [Furfurylthiol-2]	0.51
c1ccc2[nH]ccc2c1 [Indole]	0.91
CC/C=C\CC1CCCC(=O)O1 (stereo not drawn) [Jasmine lactone]	1.40
Oc1ccccc1 [Phenol]	−0.30

Same assay, conditions: solvent ethanol, proportion 50%

SMILES	log Pow* (P′ 50%)
CCC(C)CO (stereo not drawn) [2-mebutanol, 2-methylbutanol]	−1.05
CCC/C=C/C=O [2E-hexenal]	−0.27
CCC/C=C/CO [2E-hexenol]	0.02
CCCCOC(C)=O [Butylacetate]	0.06
CC(=O)C(C)=O [Diacetyl]	−3.60
CCOC(=O)C(C)CC (stereo not drawn) [Ethylmethylbutyrate-2]	1.11
SCc1ccco1 [Furfurylthiol-2]	0.31
c1ccc2[nH]ccc2c1 [Indole]	0.73
CC/C=C\CC1CCCC(=O)O1 (stereo not drawn) [Jasmine lactone]	1.25
Oc1ccccc1 [Phenol]	−0.56

Same assay, conditions: solvent ethanol, proportion 60%

SMILES	log Pow* (P′ 60%)
CCC(C)CO (stereo not drawn) [2-mebutanol, 2-methylbutanol]	−1.31
CCC/C=C/C=O [2E-hexenal]	−0.47
CCC/C=C/CO [2E-hexenol]	−0.17
CCCCOC(C)=O [Butylacetate]	−0.13
CC(=O)C(C)=O [Diacetyl]	−3.85
CCOC(=O)C(C)CC (stereo not drawn) [Ethylmethylbutyrate-2]	0.97
SCc1ccco1 [Furfurylthiol-2]	0.13
c1ccc2[nH]ccc2c1 [Indole]	0.57
CC/C=C\CC1CCCC(=O)O1 (stereo not drawn) [Jasmine lactone]	1.11
Oc1ccccc1 [Phenol]	−0.79

Same assay, conditions: solvent ethanol, proportion 70%

SMILES	log Pow* (P′ 70%)
CCC(C)CO (stereo not drawn) [2-mebutanol, 2-methylbutanol]	−1.53
CCC/C=C/C=O [2E-hexenal]	−0.65
CCC/C=C/CO [2E-hexenol]	−0.33
CCCCOC(C)=O [Butylacetate]	−0.29
CC(=O)C(C)=O [Diacetyl]	−4.07
CCOC(=O)C(C)CC (stereo not drawn) [Ethylmethylbutyrate-2]	0.85
SCc1ccco1 [Furfurylthiol-2]	−0.02
c1ccc2[nH]ccc2c1 [Indole]	0.44
CC/C=C\CC1CCCC(=O)O1 (stereo not drawn) [Jasmine lactone]	1.00
Oc1ccccc1 [Phenol]	−0.98

Same assay, conditions: solvent ethanol, proportion 80%

SMILES	log Pow* (P′ 80%)
CCC(C)CO (stereo not drawn) [2-mebutanol, 2-methylbutanol]	−1.73
CCC/C=C/C=O [2E-hexenal]	−0.81
CCC/C=C/CO [2E-hexenol]	−0.47
CCCCOC(C)=O [Butylacetate]	−0.43
CC(=O)C(C)=O [Diacetyl]	−4.25
CCOC(=O)C(C)CC (stereo not drawn) [Ethylmethylbutyrate-2]	0.75
SCc1ccco1 [Furfurylthiol-2]	−0.15
c1ccc2[nH]ccc2c1 [Indole]	0.32
CC/C=C\CC1CCCC(=O)O1 (stereo not drawn) [Jasmine lactone]	0.90
Oc1ccccc1 [Phenol]	−1.15

Same assay, conditions: solvent ethanol, proportion 90%

SMILES	log Pow* (P′ 90%)
CCC(C)CO (stereo not drawn) [2-mebutanol, 2-methylbutanol]	−1.89
CCC/C=C/C=O [2E-hexenal]	−0.94
CCC/C=C/CO [2E-hexenol]	−0.60
CCCCOC(C)=O [Butylacetate]	−0.55
CC(=O)C(C)=O [Diacetyl]	−4.42
CCOC(=O)C(C)CC (stereo not drawn) [Ethylmethylbutyrate-2]	0.65
SCc1ccco1 [Furfurylthiol-2]	−0.26
c1ccc2[nH]ccc2c1 [Indole]	0.22
CC/C=C\CC1CCCC(=O)O1 (stereo not drawn) [Jasmine lactone]	0.81
Oc1ccccc1 [Phenol]	−1.30

Same assay, conditions: solvent ethanol, proportion 100%

SMILES	log Pow* (P′ 100%)
CCC(C)CO (stereo not drawn) [2-mebutanol, 2-methylbutanol]	−2.04
CCC/C=C/C=O [2E-hexenal]	−1.06
CCC/C=C/CO [2E-hexenol]	−0.71
CCCCOC(C)=O [Butylacetate]	−0.66
CC(=O)C(C)=O [Diacetyl]	−4.56
CCOC(=O)C(C)CC (stereo not drawn) [Ethylmethylbutyrate-2]	0.57
SCc1ccco1 [Furfurylthiol-2]	−0.36
c1ccc2[nH]ccc2c1 [Indole]	0.13
CC/C=C\CC1CCCC(=O)O1 (stereo not drawn) [Jasmine lactone]	0.73
Oc1ccccc1 [Phenol]	−1.43

Test: log Pow: distribution coefficient between 1-octanol and water
Details: 1-octanol/water

SMILES	log Pow
CCC(C)CO (stereo not drawn) [2-mebutanol, 2-methylbutanol]	1.29
CCC/C=C/C=O [2E-hexenal]	1.61
CCC/C=C/CO [2E-hexenol]	1.75
CC(C)CCO [3-mebutanol, 3-methylbutanol]	1.28
CCCCOC(C)=O [Butylacetate]	1.77
CC(C)=CCCC(C)=CC=O [Citral]	3.17
CC(=O)C(C)=O [Diacetyl]	−1.33
CCCSSCCC [Dipropyldisulfide]	3.90
CCCC(=O)OCC [Ethylbutyrate]	1.77
CCOC(=O)C(C)CC (stereo not drawn) [Ethylmethylbutyrate-2]	2.38
SCc1ccco1 [Furfurylthiol-2]	1.90
c1ccc2[nH]ccc2c1 [Indole]	2.14
CC/C=C\CC1CCCC(=O)O1 (stereo not drawn) [Jasmine lactone]	2.47
